# Columns and labels:
# [1] = system: Respiratory Syncytial Virus (RSV) long strain (ATCC#VR-26); assay: RSV Antiviral Assay (CPE reduction assay); type: cell-based; settings: human respiratory syncytial virus, 120 h; HEp-2 cells infected with RSV long strain, 5 days, CCK-8 readout; bins (Table 2: less than 1 μM; Table 3: equal to or higher than 1 μM and less than 50 μM); read-out: 50% effective concentration (EC50)
# Method in brief: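 HEp-2 cells infected with 100 TCID50 RSV long strain per well, compounds from 100 μM or 1 μM in 9-point ⅓ dilutions, duplicates, 1% DMSO. After 5 days at 37 °C, viable cells measured by CCK-8 (A450, 630 nm background); EC50 by regression on mean O.D.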
# [2] = Cytotoxicity Determination; type: cell-based; settings: human, HEp-2 cells, without addition of virus, CCK-8 readout, bins (Table 4: greater than 100 μM; Table 5: equal to or less than 100 μM and greater than 10 μM), read-out: 50% cytotoxicity concentration (CC50)
# Method in brief: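 Uninfected cells were exposed to compounds in duplicate over a 7-point ½ dilution series starting at 100 μM final, for 5 days at 37 °C, 5% CO2. CCK-8 was then added for 3-4 h, and CC50 was calculated from optical density.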
SMILES,EC50 [1] [µM],CC50 at 5 days [2] [µM]
COc1ccc(C(=O)NCC(=O)c2ncc(-c3csc4c(F)cccc34)[nH]2)cc1OC [Compound 1352],1 to 50,10 to 100
COc1cc(C(=O)NCC(=O)c2cccc(-c3csc4c(F)cccc34)n2)ccc1OC1CC(O)C1 (stereo not shown) [Compound 1256],< 1,10 to 100
COc1ccc(C(=O)NCC(=O)c2ccc(OC)c(-c3ccc(OC(F)(F)F)cc3)n2)cc1OC [Compound 1532],1 to 50,10 to 100
COc1ccc(C(=O)NCC(=O)N/N=C(\CCO)c2csc3ccccc23)cc1OC [Compound 492],< 1,> 100
COc1cc(C(=O)N[C@H](CO)C(=O)c2ccc(OC)c(-c3ccc(F)c(Cl)c3)n2)ccc1OCCO [Compound 1831],< 1,10 to 100
COc1ccc(C(=O)N2CCCC2C(=O)c2ccc(OC)c(-c3csc4c(F)cccc34)n2)cc1OC (stereo not shown) [Compound 1822],1 to 50,10 to 100
CNCc1ccc(C(=O)NCC(=O)N/N=C(\CCOC)c2csc3c(F)cccc23)cc1OC [Compound 400-24],1 to 50,> 100
CCCn1nc(-c2csc3c(F)cccc23)nc1C(=O)CNC(=O)c1ccc(OC)c(OC)c1 [Compound 2203],1 to 50,> 100
COc1cc(C(=O)NCC(=O)c2ccc(OC)c(-c3csc4ccncc34)n2)ccc1OCCO [Compound 1621],1 to 50,> 100
CNCCOc1ccc(C(=O)NCC(=O)c2ccc(OC)c(-c3ccc(F)c(Cl)c3)n2)cc1OC [Compound 1313],1 to 50,10 to 100
COc1cc(C(=O)N[C@H](CCO)C(=O)c2ccc(OC)c(-c3ccc(F)c(C(F)(F)F)c3)n2)ccc1OCCO [Compound 1806],< 1,> 100
CCCCCC/C(=N\NC(=O)CNC(=O)c1ccc(OC)c(OC)c1)c1csc2ccccc12 [Compound 453],1 to 50,10 to 100
COc1ccc(C(=O)NC(C)CC(=O)c2ccc(OC)c(-c3csc4c(F)cccc34)n2)cc1OC (stereo not shown) [Compound 1801],1 to 50,> 100
COc1ccc(C(=O)NCC(=O)c2ccc(OC)c(-c3c(C)ccnc3Cl)n2)cc1OC [Compound 1511],1 to 50,10 to 100
COc1ccc(C(=O)NCC(=O)N/N=C(/c2csc3ccccc23)C2CC2)cc1OC [Compound 426],1 to 50,10 to 100
CCOc1ccc(C(=O)NCC(=O)N/N=C2\CN(CC)Cc3sc4c(F)cccc4c32)cc1OC [Compound 464],< 1,> 100
COc1ccc(C(=O)NCC(=O)N/N=C(\CCO)c2csc3c(F)cccc23)cc1OC [Compound 400-13],1 to 50,> 100
COc1ccc(C(=O)NCC(=O)N/N=C/c2ccc3ccsc3c2)cc1OC [Compound 496],1 to 50,10 to 100
COc1cc(C(=O)NCC(=O)c2ccc(OC)c(-c3ccc(Cl)c(F)c3)n2)ccc1OCCO [Compound 1612],< 1,> 100
COc1cc(C(=O)NCC(=O)N2CCCC(c3csc4c(F)cccc34)=N2)ccc1OCCO [Compound 1101],< 1,> 100

SMILES,EC50 [1] [µM],CC50 at 5 days [2] [µM]
COC(=O)c1cc(C(=O)CNC(=O)c2ccc(OCCO)c(OC)c2)nc(-c2csc3c(F)cccc23)c1 [Compound 1257],1 to 50,> 100
COc1ccc(C(=O)NCC(=O)N/N=C(\C)c2cc3c(F)cccc3s2)cc1OC [Compound 400-3],1 to 50,> 100
COc1cc(C(=O)NCC(=O)c2ccc(OC)c(-c3ccc(F)c(Cl)c3)n2)ccc1OCCF [Compound 2648],< 1,> 100
COc1ccc(C(=O)NCC(=O)N/N=C(\C)c2coc3ccccc23)cc1OC [Compound 439],1 to 50,> 100
COc1ccc(C(=O)NCC(=O)N/N=C2\CCSc3ccccc32)cc1OC [Compound 451],1 to 50,> 100
COc1cc(C(=O)NCC(=O)c2ccc(OC)c(-c3ccc(Cl)c(C(F)(F)F)c3)n2)ccc1OCCO [Compound 1623],< 1,> 100
CCN(CC)c1cccc(C(=O)NCC(=O)N/N=C(\C)c2csc3ccccc23)c1 [Compound 503],1 to 50,> 100
CCOc1ccc(C(=O)NCC(=O)c2ccc(OC)c(-c3ccc(F)c(Cl)c3)n2)cc1OC [Compound 2641],< 1,> 100
COCc1ccc(C(=O)NCC(=O)N/N=C(\C)c2csc3ccccc23)cc1OC [Compound 400-6],1 to 50,> 100
COc1ccc(C(=O)NCC(=O)c2cc(C)cc(-c3csc4c(F)cccc34)n2)cc1OC [Compound 1211],< 1,> 100
CCCc1cc(C(=O)CNC(=O)c2ccc(OC)c(OC)c2)nc(-c2csc3c(F)cccc23)c1 [Compound 1244],< 1,10 to 100
CCOc1ccc(C(=O)NCC(=O)N(C)/N=C/c2csc3c(F)cccc23)cc1OC [Compound 400-25],< 1,> 100
COc1cc(C(=O)NCC(=O)c2ccc(OC)c(-c3coc4c(F)cccc34)n2)ccc1OCCO [Compound 1343],< 1,> 100
COc1ccc(C(=O)NCC(=O)N/N=C(\C)c2noc3ccccc23)cc1OC [Compound 491],1 to 50,> 100
COc1ccc(C(=O)NCC(=O)c2cccc(-c3csc4c(F)cccc34)c2)cc1OC [Compound 1218],1 to 50,> 100
COc1ccc(C(=O)NCC(=O)N/N=C(\C)c2csc3ncccc23)cc1OC [Compound 400-10],1 to 50,> 100
COc1cc(C(=O)N[C@@H](CCO)C(=O)c2ccc(OC)c(-c3ccc(F)c(C(F)(F)F)c3)n2)ccc1OCCO [Compound 1807],< 1,> 100
COc1ccc(C(=O)NCC(=O)N/N=C(\CF)c2csc3ccccc23)cc1OC [Compound 444],1 to 50,> 100
CC/C(=N\NC(=O)CNC(=O)c1ccc(OC)c(OC)c1)c1csc2ccccc12 [Compound 415],< 1,10 to 100
COc1cc(C(=O)NCC(=O)c2ccc(OC)c(-c3ccnc(Cl)c3)n2)ccc1OCCO [Compound 1611],1 to 50,> 100

SMILES,EC50 [1] [µM],CC50 at 5 days [2] [µM]
COc1ccc(C(=O)NCC(=O)c2cc(C3CC3)cc(-c3csc4c(F)cccc34)n2)cc1OC [Compound 1249],1 to 50,> 100
COc1cc(C(=O)NCC(=O)c2ccc(OC)c(-c3ccc(F)c(C)c3)n2)ccc1OCCO [Compound 1325],< 1,> 100
COc1ccc(C(=O)NCC(=O)N/N=C(\CC#N)c2csc3ccccc23)cc1OC [Compound 456],1 to 50,> 100
COc1ccc(C(=O)NCC(=O)c2nc(-c3csc4c(F)cccc34)cn2CC(C)C)cc1OC [Compound 1356],1 to 50,> 100
COc1ccc(C(=O)NCC(=O)N/N=C/c2csc3ccccc23)cc1OC [Compound 401],1 to 50,10 to 100
CCOC(=O)c1c[nH]c2c(/C=N/NC(=O)CNC(=O)c3ccc(OC)c(OC)c3)csc2c1=O [Compound 498],1 to 50,> 100
COc1ccc(C(=O)NCC(=O)c2nc(-c3csc4c(F)cccc34)cs2)cc1OC [Compound 1206],1 to 50,10 to 100
COc1ccc(C(=O)NC(CO)C(=O)c2ccc(OC)c(-c3csc4c(F)cccc34)n2)cc1OC (stereo not shown) [Compound 1816],< 1,> 100
COc1ccc(C(=O)NCC(=O)c2ccc(OC)c(-c3csc4ccccc34)n2)cc1OC [Compound 1508],< 1,> 100
COc1cc(C(=O)NCC(=O)c2cccc(-c3csc4c(F)cccc34)n2)ccc1OCc1nc[nH]n1 [Compound 1242],1 to 50,10 to 100
COc1ccc(C(=O)NCC(=O)N/N=C(\C)c2csc3c(N)cccc23)cc1OC [Compound 497],1 to 50,> 100
COc1cc(C(=O)NCC(=O)c2ccc(OC)c(-c3ccc(Cl)nc3)n2)ccc1OCCO [Compound 1330],1 to 50,> 100
CCCC/C(=N\NC(=O)CNC(=O)c1ccc(OCC)c(OC)c1)c1csc2c(F)cccc12 [Compound 462A],< 1,> 100
CCCCOc1ccc(C(=O)NCC(=O)N/N=C(\C)c2csc3ccccc23)cc1OC [Compound 483],1 to 50,10 to 100
COc1ccc(C(=O)N(C)N(C)C(=O)c2cccc(-c3csc4c(F)cccc34)n2)cc1OC [Compound 3103],1 to 50,10 to 100
COc1cc(C(=O)NCC(=O)c2ccc(OC)c(-c3ccc(F)c(C#N)c3)n2)ccc1OCCO [Compound 1615],1 to 50,> 100
COc1ccc(C(=O)NCC(=O)c2ccc(-c3csc4c(F)cccc34)o2)cc1OC [Compound 1351],1 to 50,> 100
COc1ccc(C(=O)NCC(=O)c2ccc(OC)c(-c3cccc(F)c3F)n2)cc1OC [Compound 1526],1 to 50,> 100
CCCC/C(=N\NC(=O)CNC(=O)c1ccc(OC)c(OCC)c1)c1csc2ccccc12 [Compound 246A],< 1,10 to 100

# From patent US9724351B2, “Compounds for the treatment of paramoxyvirus viral infections” (priority 2012, dated 2017)
